Source: ChEMBL document CHEMBL5113486, “Hit-to-lead optimization of novel phenyl imidazole carboxamides that are active against Leishmania donovani” (Eur J Med Chem, 2022)
pIC50: −log10 of the molar value. Values after ≈ are worked out from the molar mass of the structure shown.

Experiments:
Leishmania donovani [1] = assay: Antileishmanial activity against Leishmania donovani infected in human THP-1 cells assessed as growth inhibition by intramacrophage assay; type: functional, organism-based
[2] = Cytotoxicity against human THP-1 cells assessed as cell growth inhibition; type: toxicity, cell-based
[3] = Selectivity index, ratio of CC50 for cytotoxicity against human THP-1 cells to IC50 for antileishmanial activity against Leishmania donovani infected in human THP-1 cells; type: toxicity, cell-based; settings: read-out: Ratio CC50/IC50
Leishmania donovani [4] = assay: Antileishmanial activity against Leishmania donovani infected in human THP-1 cells assessed as growth inhibition at 100 uM by intramacrophage assay; type: functional; set-up: scale not given: the % may be the effect or the level left
[5] = Cytotoxicity against human HepG2 cells assessed as cell growth inhibition at 100 uM; type: toxicity, cell-based; settings: read-out: Activity
[6] = Solubility of the compound upto 800 uM; type: physicochemical
[7] = Kinetic solubility of the compound at pH 2.0 by nephelometry; type: physicochemical; settings: buffer, read-out: Kinetic_solubility
[8] = Kinetic solubility of the compound at pH 6.5 by nephelometry; type: physicochemical; settings: buffer, read-out: Kinetic_solubility
[9] = Metabolic stability in human liver microsomes assessed as half-life; type: ADME, Microsome
[10] = Metabolic stability in mouse liver microsomes assessed as half life; type: ADME, Microsome
[11] = Metabolic stability in human liver microsomes assessed as intrinsic clearance measured per mg protein; type: ADME, Microsome; settings: read-out: CLH
[12] = Metabolic stability in mouse liver microsomes assessed as intrinsic clearance measured per mg protein; type: ADME, Microsome; settings: read-out: CLH
[13] = Drug degradation in human liver microsomes; type: ADME, Microsome; settings: read-out: Drug degradation
[14] = Solubility of the compound in DMSO; type: physicochemical
Leishmania donovani [15] = assay: Antileishmanial activity against Leishmania donovani axenic amastigotes assessed as growth inhibition by fluorescence intensity readout assay; type: functional, organism-based
[16] = Cytotoxicity against human HepG2 cells assessed as cell growth inhibition; type: toxicity, cell-based
[17] = Lipophilicity, log P of the compound; type: physicochemical; settings: octanol/water
[18] = Metabolic stability in mouse liver microsomes assessed as half life measured at 2 to 5 mins; type: ADME, Microsome; settings: time 2-5 min
[19] = Metabolic stability in mouse liver microsomes assessed as intrinsic clearance measured per mg protein at 2 to 5 mins; type: ADME, Microsome; settings: time 2-5 min, read-out: CLH

## COc1ccc(-c2cnc(NC(=O)c3ccc([N+](=O)[O-])cc3)n2C)cc1
Leishmania donovani [1]
  pIC50: < 4.00
[2]
  CC50: > 100 µM
[3]
  selectivity ratio: > 1
Leishmania donovani [4]
  Activity: <50%
[5]
  inhibition at 100 µM: < 50%

## COc1ccc(-c2nc3ncc(-c4ccc(F)cc4)cc3[nH]2)cc1
Leishmania donovani [1]
  pIC50: < 4.00
[2]
  CC50: > 100 µM
[3]
  selectivity ratio: > 1
Leishmania donovani [4]
  Activity: <50%
[5]
  inhibition at 100 µM: < 50%
[6]
  solubility: Insoluble

## COc1ccc(-c2cnc(NC(=O)c3ccn[nH]3)n2C)cc1
Leishmania donovani [1]
  pIC50: < 4.00
[2]
  CC50: > 100 µM
[3]
  selectivity ratio: > 1
Leishmania donovani [4]
  Activity: <50%
[5]
  inhibition at 100 µM: < 50%

## COc1ccc(-c2cnc(NC(C)=O)n2C)cc1
Leishmania donovani [1]
  pIC50: < 4.00
[2]
  CC50: > 100 µM
[3]
  selectivity ratio: > 1
Leishmania donovani [4]
  Activity: <50%
[5]
  inhibition at 100 µM: < 50%

## COc1ccc(-c2cnc(NC(=O)c3cnc[nH]3)n2C)cc1
Leishmania donovani [1]
  pIC50: < 4.00
[2]
  CC50: > 100 µM
[3]
  selectivity ratio: > 1
Leishmania donovani [4]
  Activity: <50%
[5]
  inhibition at 100 µM: < 50%

## COc1ccc(-c2cnc(NC(=O)c3cnco3)n2C)cc1
Leishmania donovani [1]
  pIC50: < 4.00
[2]
  CC50: > 100 µM
[3]
  selectivity ratio: > 1
Leishmania donovani [4]
  Activity: <50%
[5]
  inhibition at 100 µM: < 50%

## COc1ccc(-c2cnc(NC(=O)c3ncc[nH]3)n2C)cc1
Leishmania donovani [1]
  pIC50: 4.96
[2]
  CC50: > 100 µM
[3]
  selectivity ratio: > 9.1
Leishmania donovani [4]
  Activity: <50%
[5]
  inhibition at 100 µM: < 50%
[7]
  solubility kinetic: > 100 µg/mL
[8]
  solubility kinetic: 6.3 µg/mL (≈ 21.2 µM)
[9]
  half-life: > 255 min
[10]
  half-life: 3 min
[11]
  microsomal CLint: < 7 µL/min/mg
[12]
  microsomal CLint: 511 µL/min/mg
[13]
  metabolised: < 15%

## CCCCn1c(-c2ccc(OC)cc2)cnc1NC(=O)c1ccc(F)cc1
Leishmania donovani [1]
  pIC50: < 4.00
[2]
  CC50: > 100 µM
[3]
  selectivity ratio: > 5.6
Leishmania donovani [4]
  Activity: <50%
[5]
  inhibition at 100 µM: < 50%

## COc1ccc(-c2cnc(NC(=O)C3CCCCC3)n2C)cc1
Leishmania donovani [1]
  pIC50: < 4.00
[2]
  CC50: > 100 µM
[3]
  selectivity ratio: > 1
Leishmania donovani [4]
  Activity: <50%
[5]
  inhibition at 100 µM: < 50%
[14]
  solubility: Insoluble

## COc1ccc(-c2cnc(NC(=O)C3CCNCC3)n2C)cc1
Leishmania donovani [1]
  pIC50: < 4.00
[2]
  CC50: > 100 µM
[3]
  selectivity ratio: > 1
Leishmania donovani [4]
  Activity: <50%
[5]
  inhibition at 100 µM: < 50%

## COc1ccc(-c2noc(NC(=O)c3ccc(F)cc3)c2C)cc1
Leishmania donovani [1]
  pIC50: < 4.00
[2]
  CC50: > 100 µM
[3]
  selectivity ratio: > 1
Leishmania donovani [4]
  Activity: <50%
[5]
  inhibition at 100 µM: < 50%

## COc1ccc(-c2cnc(NC(=O)c3cccc(C#N)c3)n2C)cc1
Leishmania donovani [1]
  pIC50: < 4.00
[2]
  CC50: > 100 µM
[3]
  selectivity ratio: > 1
Leishmania donovani [4]
  Activity: <50%
[5]
  inhibition at 100 µM: < 50%

## COc1ccc(-c2cnc(NC(=O)c3cccc(C)c3)n2C)cc1
Leishmania donovani [1]
  pIC50: < 4.00
[2]
  CC50: > 100 µM
[3]
  selectivity ratio: > 1
[5]
  inhibition at 100 µM: < 50%
[14]
  solubility: Insoluble

## COc1ccc(-c2ccc(NC(=O)c3ccc(F)cc3)nc2)cc1
Leishmania donovani [1]
  pIC50: < 4.00
[2]
  CC50: > 100 µM
[3]
  selectivity ratio: > 1
Leishmania donovani [4]
  Activity: <50%
[5]
  inhibition at 100 µM: < 50%
[14]
  solubility: Insoluble

## COc1ccc(-c2cnc(NC(=O)c3ccc(F)cc3)n2C)cc1
Leishmania donovani [15]
  pIC50: 5.49
[16]
  CC50: 100 µM
[2]
  CC50: ≥ 50 µM
[17]
  logP: 3.6
[3]
  selectivity ratio: > 8.3
[5]
  inhibition at 100 µM: < 50%
[7]
  solubility kinetic: 12.5 µg/mL (≈ 38.4 µM)
[8]
  solubility kinetic: < 1.6 µg/mL
[9]
  half-life: 59 min
[10]
  half-life: 4 min
[11]
  microsomal CLint: 30 µL/min/mg
[12]
  microsomal CLint: 396 µL/min/mg

## COc1ccc(-c2cnc3nc(-c4ccc(F)cc4)[nH]c3c2)cc1
Leishmania donovani [1]
  pIC50: < 4.00
[2]
  CC50: > 100 µM
[3]
  selectivity ratio: > 1
Leishmania donovani [4]
  Activity: <50%
[5]
  inhibition at 100 µM: < 50%
[6]
  solubility: Insoluble

## COc1ccc(-c2cnc(NC(=O)c3cccc(F)c3)n2C)cc1
Leishmania donovani [1]
  pIC50: < 4.00
[2]
  CC50: > 100 µM
Leishmania donovani [4]
  Activity: <50%
[5]
  inhibition at 100 µM: < 50%

## Cn1c(-c2ccccc2)cnc1NC(=O)c1ccc(F)cc1
Leishmania donovani [1]
  pIC50: 4.44
[2]
  CC50: > 100 µM
[3]
  selectivity ratio: > 2.8
[5]
  inhibition at 100 µM: < 50%
[7]
  solubility kinetic: 25 µg/mL (≈ 84.7 µM)
[8]
  solubility kinetic: 25 µg/mL (≈ 84.7 µM)

## COc1ccc(-c2cnc(NC(=O)c3cc(-c4ccccn4)n[nH]3)n2C)cc1
Leishmania donovani [15]
  pIC50: 5.40
[16]
  CC50: 100 µM
[2]
  CC50: ≥ 50 µM
[17]
  logP: 3.2
[3]
  selectivity ratio: > 19
[5]
  inhibition at 100 µM: < 50%

## Cn1c(-c2ccccc2F)cnc1NC(=O)c1ccc(F)cc1
Leishmania donovani [1]
  pIC50: < 4.00
[2]
  CC50: > 100 µM
[3]
  selectivity ratio: > 1
Leishmania donovani [4]
  Activity: <50%
[5]
  inhibition at 100 µM: < 50%

## O=C(Nc1ncc(-c2ccccc2)o1)c1ccc(F)cc1
Leishmania donovani [1]
  pIC50: 5.96
[2]
  CC50: 17 µM
[3]
  selectivity ratio: 15
[7]
  solubility kinetic: 25 µg/mL (≈ 88.6 µM)
[8]
  solubility kinetic: 6.3 µg/mL (≈ 22.3 µM)
[9]
  half-life: 19 min
[11]
  microsomal CLint: 90 µL/min/mg
[18]
  half-life: 5 min
[19]
  microsomal CLint: 352 µL/min/mg

## CCCC(=O)Nc1ncc(-c2ccc(OC)cc2)n1C
Leishmania donovani [1]
  pIC50: < 4.00
[2]
  CC50: > 100 µM
[3]
  selectivity ratio: > 1
Leishmania donovani [4]
  Activity: <50%
[5]
  inhibition at 100 µM: < 50%

## COc1ccc2c(c1)nc(NC(=O)c1ccc(F)cc1)n2C
Leishmania donovani [1]
  pIC50: 4.42
[2]
  CC50: > 100 µM
[3]
  selectivity ratio: > 2.6
[5]
  inhibition at 100 µM: < 50%

## Cn1c(-c2ccc(F)cc2)cnc1NC(=O)c1ccc(F)cc1
Leishmania donovani [1]
  pIC50: < 4.00
[2]
  CC50: > 100 µM
[3]
  selectivity ratio: > 1
Leishmania donovani [4]
  Activity: <50%
[5]
  inhibition at 100 µM: < 50%

## COc1ccc(-c2cnc(NC(=O)c3ccccc3)n2C)cc1
Leishmania donovani [1]
  pIC50: 4.55
[2]
  CC50: > 100 µM
[3]
  selectivity ratio: > 3.6
[5]
  inhibition at 100 µM: < 50%
[14]
  solubility: Insoluble

## Cn1c(-c2ccccc2)cnc1NC(=O)C1CCCCC1
Leishmania donovani [1]
  pIC50: 4.34
[2]
  CC50: > 100 µM
[3]
  selectivity ratio: > 2.2
[5]
  inhibition at 100 µM: < 50%

## COc1ccc(-c2cnc(NC(=O)C3CCCC3)n2C)cc1
Leishmania donovani [1]
  pIC50: 4.08
[2]
  CC50: > 100 µM
[3]
  selectivity ratio: > 1.2
[5]
  inhibition at 100 µM: < 50%

## COc1ccc(-c2cnc(NC(=O)c3ccncc3)n2C)cc1
Leishmania donovani [1]
  pIC50: 4.36
[2]
  CC50: > 100 µM
[3]
  selectivity ratio: > 2.3
[5]
  inhibition at 100 µM: < 50%

## COc1ccc(-c2cnc(NC(=O)c3ccc(F)cc3)n2C2CCCC2)cc1
Leishmania donovani [1]
  pIC50: 4.46
[2]
  CC50: > 100 µM
[3]
  selectivity ratio: > 1
[5]
  inhibition at 100 µM: < 50%

## COc1ccc(-c2cnc(NC(=O)c3ccccc3F)n2C)cc1
Leishmania donovani [1]
  pIC50: < 4.00
[2]
  CC50: > 100 µM
[3]
  selectivity ratio: > 1
Leishmania donovani [4]
  Activity: <50%
[5]
  inhibition at 100 µM: < 50%

## COc1ccc(-c2cnc(NC(=O)c3ccc(C#N)cc3)n2C)cc1
Leishmania donovani [1]
  pIC50: < 4.00
[2]
  CC50: > 100 µM
[3]
  selectivity ratio: > 1
Leishmania donovani [4]
  Activity: <50%
[5]
  inhibition at 100 µM: < 50%

## Cc1cccc(-c2cnc(NC(=O)c3ccc(F)cc3)n2C)c1
Leishmania donovani [1]
  pIC50: 4.10
[2]
  CC50: > 100 µM
[3]
  selectivity ratio: > 1.3
[5]
  inhibition at 100 µM: < 50%
